Results published in patent US9200269B2, “β-glucuronidase inhibitor” (priority 2007, dated 2015).

What was measured:
[1] = biological target: T1, β-glucuronidase Type VII-A derived from Escherichia coli (Escherichia coli, UniProt P05804); test: Inhibition of β-glucuronidase activity (PNPG substrate, absorbance at 400 nm); type: biochemical; conditions: 1.6 units/mL enzyme, 37° C., 2 hours, pH 6.8
T1 construct: purchased Sigma-Aldrich Corporation
Method: 100 μL of a 2 mM PNPG aqueous solution, 40 μL of a 0.5 M phosphate buffer (pH 6.8), 38 μL of ion exchanged water and 2 μL of a 10 or 1 wt % dipropylene glycol (DPG) solution of various compounds or plant extracts were mixed in a bottle γ-ray sterilized in advance, and subsequently 20 μL of a β-glucuronidase aqueous solution adjusted to 16 units/mL was added, in order to allow the enzyme to react in a thermostat bath at 37° C. for 2 hours. Further, in the case of some of compounds, in addition to the above steps, the same experiment was performed using a 0.1 wt % DPG solution as well. As a result, the concentrations of the test compounds and plant extracts in the reaction solution were adjusted to 0.1, 0.01 and 0.001 wt %, respectively. Further, a product prepared by adding DPG in place of the above-mentioned compounds and plant extracts was used as a control, and a product prepared by adding ion exchanged water in place of an enzyme solution was used as a blank for each sample and control, and the respective products were allowed to react for 2 hours in the same manner. It should be noted that the plant extract sample was used as a solvent extract.
The above-mentioned reaction solution was diluted with a 0.2 M glycine buffer (pH 10.4) and measured for its absorbance at a wavelength of 400 nm. The relative activity inhibition rate of a β-glucuronidase was determined by using the obtained measurement value in accordance with the following equation. Absorbance change of control=Absorbance of control−Absorbance of blank for each control Absorbance change of sample=Absorbance of sample−Absorbance of blank for each sample Activity inhibition rate (%)=[(Absorbance change of control−Absorbance change of sample)/Absorbance change of control]×100

[2] = biological target: T2, β-glucuronidase (Escherichia coli, UniProt P05804); test: Suppression of generation of urine odor in enzyme-added urine, sensory evaluation; conditions: 0.01 wt %; human urine plus enzyme, 25° C., 2 hours; six panelists
T2 construct: purchased Sigma-Aldrich Corporation
Method: Sensory evaluation of odor was performed by six panelists, the evaluation was based on a six-level odor intensity indication method in which the odor intensity was indicated with an evaluation score of 0 to 5. In the evaluation score, “0” indicates no odor, “1” indicates odor which can be slightly perceived (detection threshold), “2” indicates odor which can be perceived to be urine odor but is weak (perception threshold), “3” indicates odor which can be easily perceived to be urine odor, “4” indicates strong urine odor, and “5” indicates extreme urine odor. The odor intensity was determined at an interval of 0.5.
360 μL of a human urine sample (a mixture of urine from five humans), which had been subjected to a microbe-removing operation with a 0.2-μm filter immediately after the collection, and […] of a 10 wt % 8-cyclohexadecen-1-one DPG solution were added to a bottle γ-ray sterilized in advance, and subsequently 40 μL of a β-glucuronidase aqueous solution adjusted to 20 units/mL was added and mixed. The mixture was incubated in a thermostat bath at 25° C. and allowed to react for 2 hours. The concentration of 8-cyclohexadecen-1-one in the reaction solution was 0.01 wt %. […]

T1 sequence (P05804 whole entry): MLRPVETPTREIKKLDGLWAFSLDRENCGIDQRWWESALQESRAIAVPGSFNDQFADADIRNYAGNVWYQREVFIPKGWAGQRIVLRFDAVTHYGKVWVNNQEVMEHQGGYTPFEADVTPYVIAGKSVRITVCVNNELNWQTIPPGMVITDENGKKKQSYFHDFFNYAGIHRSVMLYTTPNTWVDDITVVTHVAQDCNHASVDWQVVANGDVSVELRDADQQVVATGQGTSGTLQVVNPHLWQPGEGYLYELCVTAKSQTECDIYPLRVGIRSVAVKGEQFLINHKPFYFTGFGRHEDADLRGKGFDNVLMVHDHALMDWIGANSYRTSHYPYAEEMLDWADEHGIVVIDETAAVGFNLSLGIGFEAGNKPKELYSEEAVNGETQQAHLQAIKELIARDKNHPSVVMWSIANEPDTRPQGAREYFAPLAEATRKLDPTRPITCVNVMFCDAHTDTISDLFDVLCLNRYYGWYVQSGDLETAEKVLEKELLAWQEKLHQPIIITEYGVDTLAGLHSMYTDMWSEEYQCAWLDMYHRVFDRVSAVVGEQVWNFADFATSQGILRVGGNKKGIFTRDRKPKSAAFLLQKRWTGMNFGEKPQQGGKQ
T2 sequence (P05804 whole entry): as above

With `O=C1CCCCCCC=CCCCCCCC1` [8-Cyclohexadecen-1-one, 8-cyclohexadecen-1-one] the “Inhibition rate (%) Concentration 0.001%” value ([1]; 0.001 wt % in reaction solution) was 95.8%, the inhibition at 0.01 wt % ([1]; 0.01 wt % in reaction solution, read-out: Inhibition rate (%) Concentration 0.01%) was 99.9% and the inhibition at 0.1 wt % ([1]; 0.1 wt % in reaction solution, read-out: Inhibition rate (%) Concentration 0.1%) was 100%. The “Generation of urine odor, sensory evaluation (result in words, FIG. 5)” value [2] was “sensuously suppressed the generation of urine odor”.
